“Also recorded” adds a separate entry of the source.
Tests used:
[1] = test system: MARV-Ci67; format: cell-based, Marburg virus
[2] = test system: human peripheral blood monocyte-derived dendritic cells and umbilical-vein endothelial cells (HUVEC)
[3] = test system: VSV; format: cell-based, vesicular stomatitis virus
[4] = test system: intracellular cholesterol; format: cell-based, grivet monkey
[5] = test system: rVSV-GP-EboV; format: cell-based, Ebola virus
[6] = test system: EBOV-Zaire 1995; format: cell-based, Ebola virus
[7] = test system: rVSV-GP-EboV; format: cell-based, Ebola virus; remark: listed apart in the source
[8] = test system: VSV; format: cell-based, vesicular stomatitis virus; remark: listed apart in the source

Compound | infection by authentic MarV, percentage of infected cells by immunostaining [1] | viral yield, authentic MarV [1] | cell number or morphology [2] | viral infection by VSV [3] | time until significant intracellular accumulation of cholesterol is observed [4] [h] | VSV M staining pattern after rVSV-GP-EboV (diffuse = fusion, punctate = block) [5] | infection by authentic EboV, percentage of infected cells by immunostaining [6] | viral yield, authentic EboV [6] | time after addition to cells until viral infection is inhibited [7] [min] | viral infection mediated by EboV GP [7] | VSV M staining pattern after VSV (diffuse = fusion, punctate = block) [8]
CCN(CC)CCO[C@H]1CC[C@@]2(C)C(=CC[C@@H]3[C@@H]2CC[C@]2(C)C(=O)CC[C@@H]32)C1 [U18666A, 3-β-[2-(diethylamino)ethoxy]androst-5-en-17-one] | greatly reduced; also recorded: blocks | Stark reductions | without affecting | but not VSV | > 4 | only punctate M staining | greatly reduced; also recorded: blocks | Stark reductions | < 10 | potently inhibited | Diffuse M staining
CN(C)CCCN1c2ccccc2CCc2ccccc21 [imipramine] | blocks | Stark reductions |  | but not VSV |  |  | blocks | Stark reductions |  | potently inhibited | 
ammonium chloride [NH4Cl] |  |  |  |  |  | discrete punctuate of M staining |  |  |  |  | 
bafilomycin A1 [bafA1] |  |  |  |  |  | discrete punctuate of M staining |  |  |  |  | 
